The values that follow come from publication PMC7090077, “Developing a highly efficient hydroxytyrosol whole-cell catalyst by de-bottlenecking rate-limiting steps” (Nature Communications, 2020).

For test [1], the target named is T1, VanR (Corynebacterium glutamicum, UniProt Q8NN31).
T1 construct: gene Cgl2382; full length; GST fusion from pGEX-6p-1 in E. coli BL21(DE3), GST tag cleaved with PreScission protease; homodimer, ligand pocket at subunit interface
As to the kind of experiment: isothermal titration calorimetry. It counts as binding. Background: ITC needs no label: the signal is the heat of the interaction.

The target in test [2] is T2, VanR (Corynebacterium glutamicum, UniProt Q8NN31, R148L/Y103L/Y168M).
T2 construct: gene Cgl2382; full length; GST fusion from pGEX-6p-1 in E. coli BL21(DE3), GST tag cleaved with PreScission protease; homodimer, ligand pocket at subunit interface
T2 sequence (Q8NN31 entry or part of it Y103L/R148L/Y168M): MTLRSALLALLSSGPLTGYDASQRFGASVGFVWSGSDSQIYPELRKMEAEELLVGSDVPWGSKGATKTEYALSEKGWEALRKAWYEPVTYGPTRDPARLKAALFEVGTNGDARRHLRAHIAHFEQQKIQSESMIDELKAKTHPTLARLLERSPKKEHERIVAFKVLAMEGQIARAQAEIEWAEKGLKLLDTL
Description: RFP reporter induction in E. coli BW25113 with plasmid pVanR. It counts as cell-based.

In a further test the target is T3, HpaBC (Escherichia coli, UniProt Q57160).
T3 construct: gene hpaB; HpaB and HpaC purified on Ni-NTA; two-component flavin-dependent monooxygenase; with 4-hydroxyphenylacetate 3-monooxygenase reductase component
T3 sequence (Q57160 1-520): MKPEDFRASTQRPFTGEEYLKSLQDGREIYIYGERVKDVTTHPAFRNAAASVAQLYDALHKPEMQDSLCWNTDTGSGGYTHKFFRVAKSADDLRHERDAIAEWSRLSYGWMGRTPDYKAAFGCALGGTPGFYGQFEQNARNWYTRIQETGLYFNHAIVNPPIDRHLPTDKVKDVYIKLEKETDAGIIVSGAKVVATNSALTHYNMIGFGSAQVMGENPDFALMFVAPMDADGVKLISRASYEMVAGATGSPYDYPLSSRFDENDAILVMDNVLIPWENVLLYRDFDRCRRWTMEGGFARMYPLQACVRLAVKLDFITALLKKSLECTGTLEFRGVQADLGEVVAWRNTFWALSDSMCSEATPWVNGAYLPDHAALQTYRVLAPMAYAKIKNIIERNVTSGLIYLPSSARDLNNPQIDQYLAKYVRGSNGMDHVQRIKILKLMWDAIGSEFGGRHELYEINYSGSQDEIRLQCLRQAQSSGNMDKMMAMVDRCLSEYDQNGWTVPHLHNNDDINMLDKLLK
As to the kind of experiment: specific activity, product formation by HPLC. It counts as biochemical. Particulars: wild-type.

T1 sequence (Q8NN31 entry or part of it): as the sequence (Q8NN31 entry or part of it Y103L/R148L/Y168M) above, with L103Y, L148R, M168Y counted along it

What is called Kd is the concentration at which binding is half-saturated. Lower therefore signals higher affinity. `COc1cc(C(=O)O)ccc1O` [vanillic acid] registered a Kd at VanR [1] of 6.99 µM. The EC50 is the concentration giving half of the maximal effect. A high value points to weaker potency. The compound `OCCc1ccc(O)c(O)c1` [hydroxytyrosol] gave an EC50 on VanR [2] of roughly 500 µM. Turning to `O=C(O)Cc1ccc(O)cc1` [4-hydroxyphenylacetate], at HpaBC, the specific activity entry was “the hydroxylation activity of these HpaBC mutants on the original substrate 4-HPA reduced considerably”.
